Test results as given in patent publication US5234937A, “3,5-di-tertiary-butyl-4-hydroxphenyl oxazolyl methanones and related compounds as antiinflammatory agents” (Warner-Lambert Company, priority 1991, dated 1993).

Assays:
5-Lipoxygenase = target: T1, 5-Lipoxygenase (Rattus norvegicus, UniProt P12527); assay: ARBL whole cell 5-lipoxygenase assay (LTB4 formation, RBL-1 cells); format: cell-based; details: A23187 stimulated; for inhibition at 10 µM: read-out: ARBL Percent inhibition of LTB4 @ 10 μM
T1 construct: host or cells: RBL-1 (rat basophilic leukemia)
T1 sequence (P12527 1-673): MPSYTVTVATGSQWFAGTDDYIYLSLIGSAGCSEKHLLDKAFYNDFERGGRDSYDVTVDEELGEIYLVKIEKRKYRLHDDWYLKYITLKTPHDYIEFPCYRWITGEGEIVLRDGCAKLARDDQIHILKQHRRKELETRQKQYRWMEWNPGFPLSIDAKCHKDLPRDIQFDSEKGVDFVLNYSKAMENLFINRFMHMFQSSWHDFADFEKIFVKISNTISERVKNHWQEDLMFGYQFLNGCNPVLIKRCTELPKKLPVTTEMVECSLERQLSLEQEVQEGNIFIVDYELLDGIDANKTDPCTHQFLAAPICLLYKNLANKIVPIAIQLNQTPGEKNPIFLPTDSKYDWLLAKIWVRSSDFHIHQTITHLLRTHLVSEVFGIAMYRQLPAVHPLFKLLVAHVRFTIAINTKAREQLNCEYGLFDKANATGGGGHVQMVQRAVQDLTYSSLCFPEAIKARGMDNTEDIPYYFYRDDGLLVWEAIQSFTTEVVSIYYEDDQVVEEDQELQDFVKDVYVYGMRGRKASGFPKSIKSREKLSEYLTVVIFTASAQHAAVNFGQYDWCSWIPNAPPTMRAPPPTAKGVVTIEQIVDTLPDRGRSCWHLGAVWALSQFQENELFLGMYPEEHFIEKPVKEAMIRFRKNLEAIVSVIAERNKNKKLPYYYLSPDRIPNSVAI
Method: (§1) ARBL/ARBC Cell 5-Lipoxygenase and Cyclooxygenase Assays The rat basophilic leukemia cell line (RBL-1) was obtained from the American Type Culture Collection (Rockville, MD). Radioimmunoassay (RIA) kits of LTB4 and PGF2α were obtained from Amersham (Arlington Heights, IL) and Seragen (Boston, MA), respectively. RBL-1 cells are grown in suspension culture in Eagle's minimum essential medium supplemented with 12% fetal bovine serum at 37° C in an incubator supplied with air-5% carbon dioxide. Cells are harvested by centrifugation. They are washed with cold phosphate buffered saline pH 7.4 (PBS; NaCl, 7.1 g; Na2 HPO4, 1.15 g; KH2 PO4, 0.2 g; and KCl, 0.2 g/L). Cells are finally suspended in PBS containing 1.0 mM calcium at a density of 2×10^6 cells/mL. Cells are incubated with and without test agent (in DMSO) (1% DMSO is without effect on arachidonic acid metabolism) for 10 minutes at room temperature. Calcium ionophore A23187 (5 μM) is added and cells are incubated for 7 minutes at 37° C. The reaction is stopped by chilling the tubes on ice for 10 minutes. Cells are separated by centrifugation and the supernatant is stored at -20° C. Aliquots (100 μ L) are analyzed for LTB4 and PGF2α using radioimmunoassay kits as provided by the supplier. Table I contains biochemical data obtained from this whole cell assay as IC50 s which are calculated as the amount of test compound causing 50% inhibition or % of inhibition at the named micromoles (μM) of […] or PGF2α formation.

Cyclooxygenase = assay: ARBC whole cell cyclooxygenase assay (PGF2α formation, RBL-1 cells); format: cell-based, rat; details: A23187 stimulated
Method: as §1

[1] = test system: Carrageenan-induced rat foot paw edema; assay: Carrageenan-induced rat foot paw edema 2 (CFE 2) assay; format: in vivo; details: 3 mg/kg, dosed 1 hour before carrageenan, edema measured 5 hours after carrageenan
Method: Carraogenan-Induced Rat Foot Paw Edema 2 (CFE 2) Assay: Protocol
Carageenan solution (1% w/v) is prepared by dissolving 100 mg carrageenan (Marine Colloidal Div., Springfield, NJ) in 10 mL of sterile saline (0.9%) solution (Travenol). The solution is vortexed for 30 to 45 minutes. Animals are dosed with compound 1 hour before carrageenan challenge. Foot paw edema is induced by injecting 0.10 mL of the 1% carrageenan subcutaneously into the plantar portion of the right hind paw of each rat under light anesthesia. Initial foot paw volume is measured immediately following carrageenan challenge using mercury plethysmography (Buxco Electronics). Edema is measured 5 hours after carrageenan. The difference between the 5-hour and the initial paw volume is expressed as delta edema. The delta edema for each test group of animals is used to calculate the percent inhibition of edema achieved by the compound at the test dose compared with the vehicle control group. The data in Table I (the dose at which swelling is inhibited by the noted percent) is calculated by probit analysis for the dose at which percent inhibition occurs.

Row | IC50 (5-Lipoxygenase; LTB4 by RIA, read-out: ARBL IC50 for LTB4 inhibition) | IC50 (Cyclooxygenase; PGF2α by RIA) | inhibition at 10 µM (5-Lipoxygenase) | Structure (SMILES) | CFE percent inhibition of edema [1] | ARBC Percent inhibition of PGF2α @ 10 μM (Cyclooxygenase)
1 | 0.83 µM | 0.06 µM | – | Cc1cc(C(=O)c2cc(C(C)(C)C)c(O)c(C(C)(C)C)c2)no1 [Example 1, [3,5-Bis(1,1-dimethylethyl)-4-hydroxyphenyl](5-methyl-3-isoxazolyl)methanon] | 37% | –
2 | – | – | 91% | CC(C)(C)c1cc(C(=O)c2nccs2)cc(C(C)(C)C)c1O [Example 4, [3,5-Bis(1,1 dimethylethyl)-4-hydroxyphenyl]-2-thiazolylmethanone] | – | 91%
3 | – | – | 100% | CON=C(c1cc(C(C)(C)C)c(O)c(C(C)(C)C)c1)c1cc(C)on1 [Example 14] | – | 97%
